The values that follow come from ChEMBL document CHEMBL1201862, “PubChem BioAssay data set” (2004).

Test systems include RPMI-8226; OVCAR-8; MDA-N; M14; OVCAR-3; COLO 205; MDA-MB-231; SF-268; MOLT-4; UO-31; HOP-62; RXF 393; HCC 2998; LOX IMVI; SK-MEL-28; Hs-578T; SF-539; A498; PC-3.
What all share (assay): NCI-60 cell line screen, 48 h

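Cultured in 96-well plates, cells were exposed to test compound for 48 hours across five concentrations. GI50: concentration for 50% inhibition of growth.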 The source made the active and inactive calls. Cut-off read from the data, not from the text of the source: active = GI50 up to about 1.1 µM and inactive = higher.

Take `O=C1NC2(CN3CCC2CC3)C(=O)N1CN(Cc1ccccc1)c1ccccc1` (stereo not drawn): the GI50 was 28.2 µM (inactive) in the experiment with RPMI-8226; 57 µM (inactive) in the experiment on OVCAR-8; > 100 µM (inactive) in the experiment on MDA-N; 33.7 µM (inactive) in the experiment on M14; > 100 µM (inactive) in the experiment on OVCAR-3; 92.7 µM (inactive) in the experiment on COLO 205. Moreover, the GI50 with MDA-MB-231 was > 100 µM (inactive); in the experiment with SF-268, 37.6 µM (inactive); in the experiment with MOLT-4, 68.7 µM (inactive); in the experiment on UO-31 it was 25.1 µM (inactive); with HOP-62, > 100 µM (inactive); in the experiment on RXF 393 it was 27 µM (inactive). The GI50 in the experiment on HCC 2998 was 39.6 µM (inactive); with LOX IMVI, 35.2 µM (inactive); in the experiment on SK-MEL-28, > 100 µM (inactive); in the experiment with Hs-578T it was > 100 µM (inactive); in the experiment with SF-539, 93.8 µM (inactive); with A498, > 100 µM (inactive). Moreover, the GI50 in the experiment on PC-3 was > 100 µM (inactive).

In the case of `CC(C)(C)c1ccc(O)c(CN(Cc2cc(C(C)(C)C)ccc2O)C2CCCCC2)c1`, the GI50 in the experiment with RPMI-8226 was 8.73 µM (inactive); in the experiment on OVCAR-8 it was 15.9 µM (inactive); with MDA-N, 14.7 µM (inactive); in the experiment with M14 it was 13.6 µM (inactive); in the experiment on OVCAR-3, 18.2 µM (inactive); in the experiment with COLO 205 it was 2.2 µM (inactive). Further, the GI50 with MDA-MB-231 is 18 µM (inactive); in the experiment on SF-268, 15.7 µM (inactive); in the experiment with MOLT-4, 17.7 µM (inactive); with UO-31, 23.2 µM (inactive); in the experiment with HOP-62, 18.5 µM (inactive); in the experiment with RXF 393, 17.4 µM (inactive). The GI50 in the experiment with HCC 2998 is 2.01 µM (inactive); in the experiment on LOX IMVI it was 10.7 µM (inactive); in the experiment on SK-MEL-28, 14.5 µM (inactive); in the experiment on Hs-578T, 22.6 µM (inactive); in the experiment on SF-539 it was 17.3 µM (inactive); in the experiment with A498, 17.5 µM (inactive). In addition, the GI50 with PC-3 was 17.5 µM (inactive).

For `c1cc(-c2ccc(-c3ccc(C4=NC5CCCCC5N4)cc3)o2)ccc1C1=NC2CCCCC2N1` (stereo not drawn), the GI50 with RPMI-8226 is 1.76 µM (inactive); with OVCAR-8, 1.79 µM (inactive); in the experiment on MDA-N it was 1.67 µM (inactive); in the experiment on M14 it was 1.64 µM (inactive); in the experiment on OVCAR-3, 1.85 µM (inactive); in the experiment with COLO 205 it was 1.5 µM (inactive). For the same compound, the GI50 with MDA-MB-231 was 1.5 µM (inactive); with SF-268, 1.55 µM (inactive); in the experiment on MOLT-4, 1.8 µM (inactive); in the experiment on UO-31, 2.99 µM (inactive); with HOP-62, 1.5 µM (inactive); in the experiment on RXF 393, 1.95 µM (inactive). The GI50 with HCC 2998 is 1.3 µM (inactive); in the experiment on LOX IMVI, 1.56 µM (inactive); in the experiment on SK-MEL-28, 1.83 µM (inactive); in the experiment with Hs-578T it was 1.55 µM (inactive); in the experiment on SF-539, 1.73 µM (inactive); in the experiment with A498, 2.86 µM (inactive). The GI50 in the experiment with PC-3 was 1.46 µM (inactive).

`C/C(=N\NC(=O)N/N=C(\C)c1ccccn1)c1ccccn1`: the GI50 in the experiment on RPMI-8226 is 0.0792 µM (active); with OVCAR-8 it was 9.75 µM (inactive); with MDA-N it was 0.114 µM (active); with M14, 0.205 µM (active); in the experiment with OVCAR-3, 45.1 µM (inactive); in the experiment on COLO 205, 0.069 µM (active). Moreover, the GI50 in the experiment with MDA-MB-231 was 0.333 µM (active); with SF-268, 4.18 µM (inactive); in the experiment with MOLT-4, 0.555 µM (active); with UO-31, 22.8 µM (inactive); in the experiment on HOP-62 it was 0.512 µM (active); in the experiment on RXF 393, 28.1 µM (inactive). For the same compound, the GI50 with HCC 2998 was 0.52 µM (active); in the experiment on LOX IMVI, 0.466 µM (active); with SK-MEL-28, 1.92 µM (inactive); in the experiment on Hs-578T it was > 38.6 µM (inactive); in the experiment with SF-539, 0.188 µM (active); in the experiment with A498, > 71.4 µM (inactive). In the experiment on PC-3, the GI50 is 37.2 µM (inactive).

Turning to `[N-]=[N+]=NC1C(O)C(CO)OC1n1ccc(=O)[nH]c1=O` (stereo not drawn), the GI50 in the experiment with RPMI-8226, with OVCAR-8, in the experiment with MDA-N, in the experiment on M14, in the experiment with OVCAR-3 and in the experiment on COLO 205 was > 875 µM (inactive) each time. For the same compound, the GI50 is > 875 µM (inactive) with MDA-MB-231; > 875 µM (inactive) in the experiment with SF-268; > 875 µM (inactive) with MOLT-4; > 875 µM (inactive) with UO-31; > 875 µM (inactive) with HOP-62; 0.0875 µM (active) in the experiment with RXF 393. Besides, the GI50 in the experiment with HCC 2998, in the experiment on LOX IMVI, with SK-MEL-28, in the experiment on Hs-578T, in the experiment on SF-539 and in the experiment on A498 was > 875 µM (inactive) each time. Also, the GI50 with PC-3 was > 875 µM (inactive).

For `COc1ccc2c(c1)C(N)=C(c1ccccc1OC)C2=O`, the GI50 in the experiment with RPMI-8226, with OVCAR-8, in the experiment with MDA-N, in the experiment on M14, with OVCAR-3 and in the experiment on COLO 205 was > 100 µM (inactive) each time. In addition, the GI50 in the experiment with MDA-MB-231 was > 100 µM (inactive); in the experiment on SF-268, > 100 µM (inactive); in the experiment with MOLT-4, 75.7 µM (inactive); in the experiment on UO-31, 89.7 µM (inactive); with HOP-62 it was > 100 µM (inactive); in the experiment on RXF 393, 25.1 µM (inactive). Besides, the GI50 with HCC 2998, with LOX IMVI, in the experiment on SK-MEL-28, with Hs-578T, in the experiment on SF-539 and with A498 was > 100 µM (inactive) in each case. Further, in the experiment on PC-3, the GI50 was 85.7 µM (inactive).

As for `Cc1ccc(C)n1-c1ccccc1C1C=Cn2c3c1c(=O)c(OC(C)C)c(OC(C)C)c-3n[nH]c2=O` (stereo not drawn), the GI50 is 8.3 µM (inactive) with RPMI-8226; 33.7 µM (inactive) with OVCAR-8; 37.6 µM (inactive) in the experiment with MDA-N; 25.1 µM (inactive) in the experiment with M14; 35.5 µM (inactive) in the experiment on OVCAR-3; 13.1 µM (inactive) in the experiment on COLO 205. The GI50 in the experiment on MDA-MB-231 is 33.6 µM (inactive); in the experiment with SF-268, 59.2 µM (inactive); in the experiment on MOLT-4, 6.62 µM (inactive); in the experiment with UO-31, 64.3 µM (inactive); with HOP-62, 40 µM (inactive); in the experiment on RXF 393 it was 23 µM (inactive). The GI50 with HCC 2998 is 23.6 µM (inactive); in the experiment with LOX IMVI it was 25.9 µM (inactive); in the experiment with SK-MEL-28, 17.5 µM (inactive); in the experiment with Hs-578T, 35.4 µM (inactive); with SF-539, 58.3 µM (inactive); in the experiment on A498, > 100 µM (inactive). Also, the GI50 with PC-3 was 10.3 µM (inactive).
